According to patent US6682897B1, “Peptides derived from human heat protein 60 for treatment of diabetes, compositions, methods and kits” (Yeda Research and Development Co. Ltd., priority 1995, dated 2004):
Marks after values point to notes of the source that are not given here. Where no end group is shown, it is not given here.

Key:
draining lymph nodes = assay: T-cell proliferative responses of NOD mice to peptides (Example 4, FIG. 3); format: cell-based; conditions: NOD mice immunized with 25 μg peptide in IFA, lymph nodes 10 days later, 20 μg/ml
Protocol: FIG. 3 is a graph showing T-cell proliferative responses of NOD mice to peptides. Groups of three NOD mice were […] with peptides mouse p12, mouse p277, GAD-p35 and MT-p278 in IFA each at a dose of 25 μg in IFA. The draining lymph nodes were removed 10 days later and assayed for proliferative responses to the corresponding peptide at the concentrations of 5, 10, 20, and 50 μg/ml. The stimulation at the optimal concentration of 20 μg/ml is shown. The following ranges of cpm were obtained in medium controls: mouse p12, 881; mouse p277, 1243; MT-p278, 698 and GAD-p35 1430. Peptide mouse p38 is a peptide derived from mouse hsp60 (556-573), which has no sequence homology with the tested peptides and serves as a negative control of specificity. […] Each assay was done in triplicates for which the SD values are indicated by the bars. There was no cross-reactivity between the peptides (not shown).
(§1) (iii) T-Cell proliferation to peptides. Mice. Nine week old NOD mice or mice of other strains were immunized in the hind foot pads with 0.1 ml of an emulsion containing 25 μg peptide in complete Freund's adjuvant (CFA; Difco, Detroit, Mich.) mixed with an equal volume of phosphate-buffered saline (PBS). The draining popliteal lymph nodes were removed 10 days later and suspensions of lymphocytes in triplicate cultures were tested for proliferation in the presence of the various peptides (5 μg/ml) using the incorporation of [^3H]-thymidine as described (Elias et al., 1991). The results are shown as the stimulation index (SI): the ratio of the mean cpm in the presence of the test peptide to the mean cpm of control cultures without the peptide. Standard errors were always less than 10% of the means.
Spontaneous T cell responses in pre-diabetic NOD mice were detected to the mouse p277 peptide (Elias et al., 1991; Birk et al., 1996) and to larger fragments of the mouse hsp60 molecule that contained the mouse p277 sequence (Birk et al., 1996). […] Other peptides immunogenic for NOD mice are the MT-p278 peptide (residues 458-474 in the Mycobacterial hsp60 molecule), and GAD-p35 (residues 524-543 in the GAD65 molecule).

[1] = system: spleens of female NOD mice; assay: Spontaneous T-cell responses in spleens of female NOD mice (longitudinal study); format: cell-based; conditions: female NOD mice at ages 3-16 weeks
female NOD mice = assay: Peptide treatment of 10-week old NOD mice, development of diabetes (Example 4, FIG. 4); format: in vivo; conditions: single s.c. injection in IFA at 10 weeks, observed through 8 months of age, vs IFA alone
Protocol: FIG. 4 is a graph showing the effect of peptide administration on diabetes. Groups of 10-20 NOD mice were treated at 10 weeks of age with 100 μg of mouse p12, p277, p35-GAD or MT-p278 in IFA, or IFA alone. The mice were bled monthly and followed for the onset of hyperglycemia.
(§2) (iv) Treatment and follow-up. Peptides, […], in PBS, were emulsified with an equal volume of IFA and injected subcutaneously into 10-week-old NOD females as described (Elias and Cohen, 1995). Control mice received an equal volume of PBS emulsified in IFA. The mice were monitored monthly for non-fasting blood glucose at 10am using the Blood Glucose Sensor (MediSense. Inc., Waltham, Mass.). Mice with a blood glucose greater than 11.1 mmol/L were considered to be diabetic; this concentration of glucose was greater than 3 standard deviations above the mean blood glucose concentration measured in non-diabetic mice (Elias and Cohen, 1995). Histological examination of the islets of the pancreas was done on sections stained with hematoxylin and eosin. The sections were scored independently by two observers who both were unaware of the identity of the groups. The chi square test was used to ascertain the statistical differences between the various treatments.
Following a protocol shown to be effective with mouse p277(Elias et al., 1991; Elias and Cohen, 1994; Elias and Cohen, 1995), groups of 10-week old female NOD mice were treatedby a single subcutaneous injection of each peptide ([…]) emulsified in IFA.

[2] = system: serum antibodies of the IgG1, IgG2a and IgG2b isotypes; assay: Serum anti-peptide antibody isotypes by ELISA in peptide-treated NOD mice (FIG. 5); format: in vivo; conditions: for antibody titers of the IgG1 and IgG2b isotypes: peptide-treated NOD mice, sera diluted 1:50, ELISA
Protocol: FIGS. 5A-5D show the IgG1, IgG2a and IgG2b antibody isotypes in response to peptide treatment. Mice were treated as described in the legend to FIG. 4. Individual samples were analyzed for antibodies to mouse p12 A; p277 B; GAD-p35 C; and MT-p278 D, of the IgG1, IgG2a and IgG2b isotypes. Similar effects were obtained in two experiments. The results are presented as the absorbance at 405 nm (OD) of 10 individual mice in each group. The level of significance of the prevalence of IgG1 and IgG2b antibodies in groups A and B compared to C and D is P<0.001. The differences between the levels of IgG1 and IgG2b antibodies compared to the IgG2a antibodies in groups A and B were significant (P<0.001). There was no cross-reactivity between the antibodies (not shown).
(v) Serum Antibodies. Mice were bled monthly to detect antibody responses. The ELISA assay was done as described (Elias et al., 1991). Briefly, flat bottom Maxi-sorb plates (Nunc, Roskilde, Denmark) were coated, for the detection of anti-peptide antibodies, with […] of peptide in PBS, at a concentration of […] for 2 h at room temperature followed by over night incubation at 4° C. After incubation with peptide, the plates were washed and blocked for 2 h at 37° C. with 7% BSA (Sigma) in PBS. Sera were diluted 1:50 then added for 2 h at 37° C., followed by incubation for 2 h with […] of goat anti-mouse IgG (gamma chain Fc specific) conjugated to alkaline phosphatase (Jackson, Philadelphia, Pa.). After washing, the plates were incubated with the substrate, diethanolamine (Sigma) and read using an ELISA reader at 405 nm.
Successful treatment of STZ-induced diabetes with mouse peptide p277 was associated with the appearance of anti-peptide antibodies predominantly of the IgG1 and IgG2b isotypes (Elias and Cohen, 1996). The peptide-treated NOD mice for their serum antibodies was therefore examined. […] Thus, effectiveness in inhibiting diabetes was associated with the induction of an antibody response mainly of the IgG1 and IgG2b isotypes.

peripheral blood T-cells = assay: Peripheral blood T-cell proliferation of IDDM patients and healthy controls to hsp60 and hsp60 synthetic peptides (Example 5); format: cell-based, human; conditions: 26 newly diagnosed IDDM patients; peptides 20 μg/ml, 7 days
NOD mice = conditions: s.c. in IFA; young NOD mice or 12-17 week old NOD mice with advanced insulitis; cited from earlier work
C57BL/KsJ mice = conditions: mice that had received earlier a very low dose of STZ; cited from earlier work
[3] = system: draining popliteal lymph node lymphocytes; assay: T-cell proliferation of draining lymph node cells of NOD mice immunized with hsp60 peptides in CFA (Example 1, FIG. 2); format: cell-based; conditions: NOD mice immunized with peptide emulsified in CFA in hind foot pads, assayed after 10 days
Protocol: as §1, with “1991).” for “1991). The results are shown as the stimulation index (SI): the ratio of the mean cpm in the presence of the test peptide to the mean cpm of control cultures without the peptide. Standard errors were always less than 10% of the means.”
The immunogenicity of the hsp60 peptides p12, p32, p277(Val^6-Val^11) and p278 in NOD mice was tested by immunizing the mice with the peptides emulsified in CFA in the hind foot pads, and assaying the proliferative responses of draining lymph node cells after 10 days as described above in section iii(a).

NOD/Lt female mice = assay: Treatment of NOD mice with peptides in IFA: diabetes and mortality (Example 2); format: in vivo; conditions: 100 μg peptide in IFA s.c., nine-week old NOD/Lt females; for Diabetes (%): persistent blood glucose over 11.1 mmol/l at 25 weeks of age
Protocol: as §2, with “Mice with a blood glucose greater than 11.1 mmol/L were considered to be diabetic; this concentration of glucose was greater than 3 standard deviations above the mean blood glucose concentration measured in non-diabetic mice (Elias and Cohen, 1995).” left out
To test whether the p12 and p32 peptides can block the progression of diabetes as p277(Val^6-Val^11), the p277(Val6-Val^11), p12 or p32 peptides (100 μg in a 0.1 cc emulsion of IFA) were administered subcutaneously to groups of 10-12 nine-week old NOD/Lt female mice of the Jackson Laboratory, Bar-Harbor, Me. Diabetes, determined as persistent blood glucose levels over 11.1 mmol/l, was tested at 25 weeks of age. Control mice were untreated or were treated with p278.

[4] = system: Peripheral mononuclear cells (PBMC) of IDDM patients; assay: T-cell proliferative response of PBMC from newly diagnosed IDDM patients (Example 3); format: cell-based, human; conditions: antigen 10 μg/ml, 6 days, SI more than 2.0 positive
Protocol: To determine the T-cell responses to the various hsp60 peptides, lymphocytes from the peripheral blood of newly diagnosed (2 weeks-4 months) IDDM patients were tested in a proliferation assay. 10-20 ml of blood were removed into a sterile tube containing heparin as anti-coagulant and diluted in PBS 1:2. Peripheral mononuclear cells (PBMC) were isolated by centrifuging the blood over a lymphoprep layer. The PBMC were tested for proliferation in triplicates, in the presence of the various antigens (10 μg/ml) for 6 days using the incorporation of [^3H]-thymidine as a measure of proliferation. The antigens tested were human hsp60 or the hsp60 peptides p277(Val^6-Val^11), p12, p32 and control peptide p278. The T cell proliferative response is depicted as stimulation index (SI): The ratio between peptide-stimulated thymidine incorporation and background (no antigen added) thymidine incorporation by the T cells.

[5] = Cross-reactivity with native peptide by T-cell and antibody assays
Description: (ii) Antigens. […] Whenever unspecified, the human sequence is intended.

[6] = compared with p277; cited from earlier work

EGDEATGANIVKVALEA [MT-p278]
immunogenicity (T-cell proliferative response) (draining lymph nodes): as strongly immunogenic as are mouse p277 and mouse p12
spontaneous T-cell responses [1]: spontaneous responses were detected
development of diabetes (female NOD mice): no different than was treatment with IFA alone
mice that made specific IgG1 antibodies ([2]; 10 individual mice per group, ELISA): only two of the ten
titers of IgG2b antibodies ([2]; compared with mouse p12 and mouse p277 groups): significantly lower titers
antibody titers of the IgG1 and IgG2b isotypes [2]: did not respond as strongly

KAPGFGDNRKNQLKDMAIAT [p21, human hsp60 residues 301-320]
T-cell proliferative response of IDDM patients (S.I. 2 or greater positive) (peripheral blood T-cells): no IDDM patients responded

LVIIAEDVDGEALSTLVLNR [p19, human hsp60 residues 271-290]
T-cell proliferative response of IDDM patients (S.I. 2 or greater positive) (peripheral blood T-cells): no IDDM patients responded

VLGGGCALLRCIPALDSLTPANED (cysteine pairing not given here) [p277, human hsp60 residues 437-460]
development of diabetes (female NOD mice): significantly protected
disease progression (NOD mice): arrest of disease progression
development of autoimmune diabetes (C57BL/KsJ mice): aborted the development of autoimmune diabetes

VLGGGVALLRVIPALDSLTPANED [p277(Val^6-Val^11)]
immunogenicity (proliferative responses of draining lymph node cells) [3]: strongly immunogenic
Mortality (%) (NOD/Lt female mice): 5* %
therapeutic effect in treatment of diabetes (NOD/Lt female mice): effective in treatment of diabetes
Diabetes (%) (NOD/Lt female mice): 10%
Diabetes (%) (NOD/Lt female mice; listed as p277 (Val^6 - Val^11)): 10* %
T-cell proliferative response (SI) ([4]; Patient 1): 4.5
T-cell proliferative response (SI) ([4]; Patient 2): 5.0
T-cell proliferative response (SI) ([4]; Patient 3): 5.6
T-cell proliferative response (SI) ([4]; Patient 4): 1.0
T-cell proliferative response (SI) ([4]; Patient 5): 1.1
T-cell proliferative response (SI) ([4]; Patient 6): 1.3
T-cell proliferative response (SI) ([4]; Patient 7): 3.9
T-cell proliferative response (SI) ([4]; Patient 8): 1.2
cross-reactivity with the native peptide [5]: completely cross-reactive
activity in the treatment of diabetes [6]: as active as p277

mouse p277: mouse variant of p277, mouse hsp60 437-460; differs from human by 1 amino acid (VLGGGCALLRCIPALDSLKPANED; UniProt P63038 437-460, looked up, fragment)
immunogenicity (T-cell proliferative response) (draining lymph nodes): strong response
spontaneous T-cell responses [1]: spontaneous responses were detected
development of diabetes (female NOD mice): effective in inhibiting the development of diabetes
antibody titers of the IgG1 and IgG2b isotypes [2]: effective in inducing strong antibody titers
